Legend:
[1] = test system: human liver microsomes (HLM); assay: Hydrolysis to ritalinic acid by human liver microsomes; assay type: in vitro ADME; settings: 1 mM substrate, 0.2 mg/ml HLM, 37° C., 60 min
Protocol: FIG. 2—Hydrolysis of methylphenidate (MPH) and isopropylphenidate (IPH) by recombinant human CES1, HLM, HIM. After incubation with CES 1 transfected human cells, HLM, and HIM at 37° C. for 60 min, the metabolite RA produced via hydrolysis of MPH and IPH was determined by HPLC. Data are presented as mean±SEM of 3 to 6 independent experiments.
Determination of Relative Hydrolytic Rates of MPH and IPH. The assessment of relative rates of hydrolysis of the two ester compounds utilized both cell culture and human liver microsomes (HLM) and human intestinal microsomes (HIM). The human carboxylesterase 1 (hCES1) s9 fraction was prepared utilizing a novel method developed in the inventors' laboratory previously (Zhu et al., 2008). Hydrolysis of IPH and MPH by hCES1, HLM, and human intestinal microsomes was assessed by incubating the substrates with the respective enzymes and measuring the formation of the major metabolite RA formed via ester hydrolysis. Briefly, 50 μl of freshly prepared substrates (IPH and MPH) was mixed with 50 μl of enzymes in 1.5 ml Eppendorf tubes yielding a total volume of 100 μl. […] Concentrations of the primary hydrolytic product of the two compounds, RA were determined utilizing a validated HPLC method previously described.

[2] = target: T1, [3H]-(±)-MPH binding to rat brain striatal synaptosomes (Rattus norvegicus, UniProt P23977); settings: mg/mg comparison; cited from earlier work
T1 construct: host or cells: rat brain striatal synaptosomes
T1 sequence (P23977 whole entry): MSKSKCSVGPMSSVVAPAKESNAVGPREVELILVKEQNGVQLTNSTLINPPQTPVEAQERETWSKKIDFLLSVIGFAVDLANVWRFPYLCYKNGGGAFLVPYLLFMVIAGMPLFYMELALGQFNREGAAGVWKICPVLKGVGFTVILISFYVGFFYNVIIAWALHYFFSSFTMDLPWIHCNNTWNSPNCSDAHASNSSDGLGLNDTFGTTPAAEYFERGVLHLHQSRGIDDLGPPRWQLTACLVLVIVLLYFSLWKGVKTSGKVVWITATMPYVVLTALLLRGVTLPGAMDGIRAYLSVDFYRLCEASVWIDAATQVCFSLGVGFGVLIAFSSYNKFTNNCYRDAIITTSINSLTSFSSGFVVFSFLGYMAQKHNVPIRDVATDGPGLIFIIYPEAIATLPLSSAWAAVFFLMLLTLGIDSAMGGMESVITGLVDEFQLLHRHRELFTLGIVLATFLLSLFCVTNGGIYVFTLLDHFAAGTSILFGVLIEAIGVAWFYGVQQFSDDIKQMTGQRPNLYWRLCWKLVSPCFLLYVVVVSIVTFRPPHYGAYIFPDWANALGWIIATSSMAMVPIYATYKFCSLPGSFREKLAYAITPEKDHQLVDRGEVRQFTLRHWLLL

[3] = test system: male rats of the Sprague-Dawley strain; assay: Locomotor activity measurement in rats; assay type: in vivo, rat
Protocol: FIGS. 4A-B—Locomotor activity of SD rats after i.p. injection of IPH (10 mg/kg) and saline. The time course of locomotor response over a 120 min period following i.p. administration of IPH (10 mg/kg) versus saline is shown in FIG. 4A. As expected, IPH produced robust effects on locomotor activity in rats compared to saline injections at every 10 min period recorded post-dosing with a mean of nearly 1200 counts recorded during the initial 10 min measurement. Shown in FIG. 4B are the cumulative locomotor activity counts over the entire 120 min study period.
Chemical compounds. dl-threo-methylphenidate (MPH) was purchased from Sigma-Aldrich (St. Louis, Mo.). dl-isopropylphenidate (IPH) was also synthesized in the inventors' laboratory using the following method. In brief, (±)-ritalinic acid (2 mmol) was dissolved in isopropyl alcohol saturated with HCl gas (75 ml) and refluxed for 24 h under nitrogen. […] All compounds studied were assessed as their HCl salts. […]
Locomotor Activity Measurement in Rats. Locomotor-inducing activity of IPH was measured according to methods previously described by Patrick and associates during their establishment the differential pharmacology of the enantiomers of MPH (Patrick et al., 1987) as well as hydroxylated metabolites of MPH (Patrick et al., 1981). […] In brief, following an initial 60 min habituation period to the activity chamber, racemic IPH (or saline) was administered intraperitonealy (i.p.) to each animal (n=5 per active drug group; n=3 per saline group) at a dose of 10 mg/kg to correspond with 10 mg of racemic MPH (delivering 5 mg of d-MPH) which was previously determined to produce maximal behavioral responses (Patrick et al., 1987). […] Locomotor activity was recorded within doughnut-shaped cages with six photocell sensors equally spaced around a 9 cm runway. Activity counts as assessed by light-beam interruptions were recorded for each animal in increments of 10 minutes over a 2 hr period. Differences in the cumulative motor activity accounts were assessed by the unpaired, two-tailed Student t-test. […]

[4] = immediate-release tablet; cited from earlier work
Sprague-Dawley rats = settings: intracerebroventricular; cited from earlier work

CC(C)OC(=O)C(c1ccccc1)C1CCCCN1 (racemic) [IPH, dl-threo-α-phenyl-2-piperidineacetic acid isopropyl ester]
resistance to hydrolysis by HLM [1]: most resistant substrate to HLM | activity relative to MPH in inhibition of [3H]-(±)-MPH binding [2]: approximately one third | mean locomotor activity counts during the initial 10 min measurement ([3]; 10 mg/kg i.p., SD rats): ~1200 counts | cumulative locomotor activity counts over 120 min versus saline ([3]; 10 mg/kg i.p., SD rats, p<0.01): significantly elevated | locomotor responses compared with d-MPH 5 mg/kg of the earlier study (Patrick et al., 1987) ([3]; racemic IPH 10 mg/kg i.p., identical experimental conditions): more potent and sustained locomotor responses

COC(=O)C(c1ccccc1)C1CCCCN1 (racemic) [MPH, dl-threo-methylphenidate, reference compound]
plasma half-life [4]: 2 to 3 h | duration of locomotor activity (Sprague-Dawley rats): 60 min
